Test [1] concerns Staphylococcus aureus. Kind of test: Compound tested to inhibit staphylococcal AgrC-2. Format: functional, organism-based.
Test [2] deals with Staphylococcus aureus. Briefly: Compound tested to inhibit staphylococcal AgrC-1. Format: functional, organism-based.

For four compounds, IC50 results are on record in ChEMBL document CHEMBL1136121, “Side-chain-to-tail thiolactone peptide inhibitors of the staphylococcal quorum-sensing system” (Bioorg Med Chem Lett, 2003).

Positions of bridges follow the written chain, without caps; N, C: chain ends. Non-standard residues stand in square brackets, D forms with d. Residues, ends and D or L forms follow the SMILES beside them. Abu = CC[C@H](N)C(=O)O

As a reminder, the IC50 is the midpoint of a concentration-inhibition curve. Higher therefore signals a need for much substance.

Consider `CC[C@@H]1NC(=O)[C@@H](NC(=O)[C@@H](NC(=O)[C@H](CO)NC(=O)[C@@H](N)Cc2ccc(O)cc2)[C@@H](C)O)CSC(=O)[C@H](CCSC)NC(=O)[C@H]([C@@H](C)CC)NC(=O)[C@H](Cc2ccccc2)NC1=O` (H-YSTC[Abu]FIM; thioester 4-C), for which the IC50 in test [1] came to 2.8 nM; in test [2], 137 nM.

`CC[C@H](C)[C@H]1NC(=O)[C@@H](Cc2ccccc2)NC(=O)[C@@H](C)NC(=O)[C@H](NC(=O)[C@@H](NC(=O)[C@H](CO)NC(=O)CCCOc2ccc(C(=O)c3ccccc3)cc2)[C@@H](C)O)CSC(=O)[C@@H](CCSC)NC1=O`: the figures for the IC50 in test [1] and in test [2] were 18 nM and 303 nM, respectively.

On to `CC[C@H](C)[C@@H]1NC(=O)[C@@H](Cc2ccccc2)NC(=O)[C@H](C)NC(=O)[C@H](NC(=O)[C@@H](NC(=O)[C@H](CO)NC(=O)CCCOc2ccc(Cc3ccccc3)cc2)[C@@H](C)O)CSC(=O)[C@H](CCSC)NC1=O`, for which the IC50 stood at 19 nM in test [1] and 295 nM in test [2].

On to `CC[C@H](C)[C@@H]1NC(=O)[C@H](Cc2ccccc2)NC(=O)[C@H](C)NC(=O)[C@@H](NC(=O)[C@@H](NC(=O)[C@H](CO)NC(=O)[C@@H](N)Cc2ccc(O)cc2)[C@@H](C)O)CSC(=O)[C@H](CCSC)NC1=O` (H-YSTCAFIM; thioester 4-C), for which the results for the IC50 in test [1] and in test [2] were 4 nM and 21 nM, respectively.
